Laboratory results published in ChEMBL document CHEMBL5584201, “Amphiphilic tribasic galactosamines potentiate rifampicin in Gram-negative bacteria at low Mg++/Ca++concentrations” (Bioorg Med Chem Lett, 2024).
Converted amounts (≈) assume the structure as drawn. The source made the active and inactive calls. The calls are words filed in the database; no cut-off is given here.

Legend:
Pseudomonas aeruginosa [1] = test: Potentiation of rifampicin-induced antibacterial activity against Pseudomonas aeruginosa PAO1 assessed as fold change in rifampicin MIC in low salt containing media by Mueller-Hinton broth based assay; type: functional
Acinetobacter baumannii [2] = test: Potentiation of rifampicin-induced antibacterial activity against Acinetobacter baumannii ATCC 17978 assessed as rifampicin MIC at 16 microg/ml in high concentration of Ca++ and Mg++ containing media by Mueller-Hinton broth based assay; type: functional; conditions: dose 16 µg/ml
Pseudomonas aeruginosa [3] = test: Potentiation of rifampicin-induced antibacterial activity against Pseudomonas aeruginosa PAO1 assessed as rifampicin MIC in low salt containing media by Mueller-Hinton broth based assay; type: functional
Acinetobacter baumannii [4] = test: Antibacterial activity against Acinetobacter baumannii ATCC 17978 in low salt containing media by Mueller-Hinton broth based assay; type: functional
Escherichia coli [5] = test: Potentiation of rifampicin-induced antibacterial activity against Escherichia coli […] assessed as rifampicin MIC at 16 microg/ml in high concentration of Ca++ and Mg++ containing media by Mueller-Hinton broth based assay; type: functional; conditions: dose 16 µg/ml
[6] = Cytotoxicity against human HepG2 cells assessed as cell viability at 9 uM relative to control; type: toxicity, cell-based; conditions: read-out: Activity
Escherichia coli [7] = test: Potentiation of rifampicin-induced antibacterial activity against Escherichia coli ATCC 25922 assessed as fold change in rifampicin MIC at 2 to 8 microg/ml in high concentration of Ca++ and Mg++ containing media by Mueller-Hinton broth based assay; type: functional; conditions: dose 2-8 µg/ml
Escherichia coli [8] = test: Potentiation of rifampicin-induced antibacterial activity against Escherichia coli ATCC 25922 assessed as rifampicin MIC in low salt containing media by Mueller-Hinton broth based assay; type: functional
Escherichia coli [9] = test: Antibacterial activity against Escherichia coli […] in high concentration of Ca++ and Mg++ containing media by Mueller-Hinton broth based assay; type: functional
Escherichia coli [10] = test: Antibacterial activity against Escherichia coli ATCC 25922 in low salt containing media by Mueller-Hinton broth based assay; type: functional
Acinetobacter baumannii [11] = test: Potentiation of rifampicin-induced antibacterial activity against Acinetobacter baumannii ATCC 17978 assessed as rifampicin MIC in low salt containing media by Mueller-Hinton broth based assay; type: functional
Acinetobacter baumannii [12] = test: Antibacterial activity against Acinetobacter baumannii ATCC 17978 in high concentration of Ca++ and Mg++ containing media by Mueller-Hinton broth based assay; type: functional
Escherichia coli [13] = test: Potentiation of rifampicin-induced antibacterial activity against Escherichia coli […] assessed as fold change in rifampicin MIC at 2 to 8 microg/ml in high concentration of Ca++ and Mg++ containing media by Mueller-Hinton broth based assay; type: functional; conditions: dose 2-8 µg/ml
Acinetobacter baumannii [14] = test: Potentiation of rifampicin-induced antibacterial activity against Acinetobacter baumannii ATCC 17978 assessed as fold change in rifampicin MIC at 2 to 8 microg/ml in high concentration of Ca++ and Mg++ containing media by Mueller-Hinton broth based assay; type: functional; conditions: dose 2-8 µg/ml
Escherichia coli [15] = test: Potentiation of rifampicin-induced antibacterial activity against Escherichia coli ATCC 25922 assessed as rifampicin MIC at 2 to 8 microg/ml in high concentration of Ca++ and Mg++ containing media by Mueller-Hinton broth based assay; type: functional; conditions: dose 2-8 µg/ml
Escherichia coli [16] = test: Antibacterial activity against Escherichia coli ATCC 25922 in high concentration of Ca++ and Mg++ containing media by Mueller-Hinton broth based assay; type: functional
Acinetobacter baumannii [17] = test: Potentiation of rifampicin-induced antibacterial activity against Acinetobacter baumannii 92247 assessed as fold change in rifampicin MIC at 2 to 8 microg/ml in high concentration of Ca++ and Mg++ containing media by Mueller-Hinton broth based assay; type: functional; conditions: dose 2-8 µg/ml
Acinetobacter baumannii [18] = test: Potentiation of rifampicin-induced antibacterial activity against Acinetobacter baumannii 92247 assessed as rifampicin MIC at 16 microg/ml in high concentration of Ca++ and Mg++ containing media by Mueller-Hinton broth based assay; type: functional; conditions: dose 16 µg/ml
[19] = Cytotoxicity against HEK293 cells assessed as cell viability at 9 uM relative to control; type: toxicity, cell-based; conditions: human, read-out: Activity
Acinetobacter baumannii [20] = test: Antibacterial activity against Acinetobacter baumannii 92247 in high concentration of Ca++ and Mg++ containing media by Mueller-Hinton broth based assay; type: functional
Escherichia coli [21] = test: Potentiation of rifampicin-induced antibacterial activity against Escherichia coli […] assessed as fold change in rifampicin MIC at 16 microg/ml in high concentration of Ca++ and Mg++ containing media by Mueller-Hinton broth based assay; type: functional; conditions: dose 16 µg/ml
Acinetobacter baumannii [22] = test: Potentiation of rifampicin-induced antibacterial activity against Acinetobacter baumannii 92247 assessed as fold change in rifampicin MIC at 16 microg/ml in high concentration of Ca++ and Mg++ containing media by Mueller-Hinton broth based assay; type: functional; conditions: dose 16 µg/ml
Acinetobacter baumannii [23] = test: Potentiation of rifampicin-induced antibacterial activity against Acinetobacter baumannii ATCC 17978 assessed as rifampicin MIC at 2 to 8 microg/ml in high concentration of Ca++ and Mg++ containing media by Mueller-Hinton broth based assay; type: functional; conditions: dose 2-8 µg/ml
Escherichia coli [24] = test: Potentiation of rifampicin-induced antibacterial activity against Escherichia coli […] assessed as rifampicin MIC at 2 to 8 microg/ml in high concentration of Ca++ and Mg++ containing media by Mueller-Hinton broth based assay; type: functional; conditions: dose 2-8 µg/ml
Escherichia coli [25] = test: Potentiation of rifampicin-induced antibacterial activity against Escherichia coli ATCC 25922 assessed as fold change in rifampicin MIC at 16 microg/ml in high concentration of Ca++ and Mg++ containing media by Mueller-Hinton broth based assay; type: functional; conditions: dose 16 µg/ml
Acinetobacter baumannii [26] = test: Potentiation of rifampicin-induced antibacterial activity against Acinetobacter baumannii ATCC 17978 assessed as fold change in rifampicin MIC at 16 microg/ml in high concentration of Ca++ and Mg++ containing media by Mueller-Hinton broth based assay; type: functional; conditions: dose 16 µg/ml
Pseudomonas aeruginosa [27] = test: Antibacterial activity against Pseudomonas aeruginosa PAO1 in low salt containing media by Mueller-Hinton broth based assay; type: functional
Escherichia coli [28] = test: Potentiation of rifampicin-induced antibacterial activity against Escherichia coli ATCC 25922 assessed as rifampicin MIC at 16 microg/ml in high concentration of Ca++ and Mg++ containing media by Mueller-Hinton broth based assay; type: functional; conditions: dose 16 µg/ml
Acinetobacter baumannii [29] = test: Potentiation of rifampicin-induced antibacterial activity against Acinetobacter baumannii 92247 assessed as rifampicin MIC at 2 to 8 microg/ml in high concentration of Ca++ and Mg++ containing media by Mueller-Hinton broth based assay; type: functional; conditions: dose 2-8 µg/ml
Acinetobacter baumannii [30] = test: Potentiation of rifampicin-induced antibacterial activity against Acinetobacter baumannii ATCC 17978 assessed as fold change in rifampicin MIC in low salt containing media by Mueller-Hinton broth based assay; type: functional
Escherichia coli [31] = test: Potentiation of rifampicin-induced antibacterial activity against Escherichia coli ATCC 25922 assessed as fold change in rifampicin MIC in low salt containing media by Mueller-Hinton broth based assay; type: functional
Escherichia coli [32] = test: Potentiation of rifampicin-induced antibacterial activity against Escherichia coli clinical isolate 94474 at 1/4 MIC in low salt containing media by Mueller-Hinton broth based assay; type: functional, organism-based
Escherichia coli [33] = test: Potentiation of rifampicin-induced antibacterial activity against Escherichia coli clinical isolate 107115 at 1/4 MIC in low salt containing media by Mueller-Hinton broth based assay; type: functional, organism-based
Acinetobacter baumannii [34] = test: Potentiation of rifampicin-induced antibacterial activity against multidrug resistant Acinetobacter baumannii AB027 at 1/4 MIC in low salt containing media by Mueller-Hinton broth based assay; type: functional, organism-based
Acinetobacter baumannii [35] = test: Potentiation of rifampicin-induced antibacterial activity against multidrug resistant Acinetobacter baumannii AB031 at 1/4 MIC in low salt containing media by Mueller-Hinton broth based assay; type: functional, organism-based
Acinetobacter baumannii [36] = test: Potentiation of rifampicin-induced antibacterial activity against multidrug resistant Acinetobacter baumannii clinical isolate 92247 at 1/4 MIC in low salt containing media by Mueller-Hinton broth based assay; type: functional, organism-based
Acinetobacter baumannii [37] = test: Potentiation of rifampicin-induced antibacterial activity against multidrug resistant Acinetobacter baumannii LAC-4 in low salt containing media by Mueller-Hinton broth based assay; type: functional, organism-based
Escherichia coli [38] = test: Potentiation of rifampicin-induced antibacterial activity against Escherichia coli clinical isolate 94393 at 1/4 MIC in low salt containing media by Mueller-Hinton broth based assay; type: functional, organism-based
Acinetobacter baumannii [39] = test: Potentiation of rifampicin-induced antibacterial activity against multidrug resistant Acinetobacter baumannii clinical isolate 110193 at 1/4 MIC in low salt containing media by Mueller-Hinton broth based assay; type: functional, organism-based

Structure (SMILES)	fold change (FC) (Pseudomonas aeruginosa [1])	MIC (Acinetobacter baumannii [2])	MIC (Pseudomonas aeruginosa [3])	MIC (Acinetobacter baumannii [4])	MIC (Escherichia coli [5])	viability at 9 µM [6]	fold change (FC) (Escherichia coli [7])	MIC (Escherichia coli [8])	MIC (Escherichia coli [9])	MIC (Escherichia coli [10])	MIC (Acinetobacter baumannii [11])	MIC (Acinetobacter baumannii [12])	fold change (FC) (Escherichia coli [13])	fold change (FC) (Acinetobacter baumannii [14])	MIC (Escherichia coli [15])	MIC (Escherichia coli [16])	fold change (FC) (Acinetobacter baumannii [17])	MIC (Acinetobacter baumannii [18])	viability at 9 µM [19]	MIC (Acinetobacter baumannii [20])	further results
CCCCCCCCO[C@H]1[C@@H](N)[C@@H](CN=[N+]=[N-])O[C@H](OCc2ccc3ccccc3c2)[C@@H]1N	8	16 µg/mL	8 µg/mL	16 µg/mL	16 µg/mL	46%	1	2 µg/mL	128 µg/mL (≈ 281 µM)	8 µg/mL	4 µg/mL	> 128 µg/mL	1	2	2 µg/mL	128 µg/mL (≈ 281 µM)	4	16 µg/mL	31.7%	128 µg/mL (≈ 281 µM)	fold change (FC) (Escherichia coli [21]): 64; fold change (FC) (Acinetobacter baumannii [22]): 64; MIC (Acinetobacter baumannii [23]): 4 µg/mL; MIC (Escherichia coli [24]): 2 µg/mL; fold change (FC) (Escherichia coli [25]): 16; fold change (FC) (Acinetobacter baumannii [26]): 4; MIC (Pseudomonas aeruginosa [27]): 32 µg/mL; MIC (Escherichia coli [28]): 16 µg/mL; MIC (Acinetobacter baumannii [29]): 4 µg/mL; fold change (FC) (Acinetobacter baumannii [30]): >=256; fold change (FC) (Escherichia coli [31]): 64
NC[C@H]1O[C@@H](OCCC23CC4CC(CC(C4)C2)C3)[C@H](N)[C@@H](OCc2ccc3ccccc3c2)[C@H]1N	2	16 µg/mL	8 µg/mL	16 µg/mL	16 µg/mL	76%	1	2 µg/mL	> 128 µg/mL	8 µg/mL	4 µg/mL	> 128 µg/mL	1	1	2 µg/mL	> 128 µg/mL	2	16 µg/mL	46.7%	> 128 µg/mL	Activity (Escherichia coli [32]): inactive; Activity (Escherichia coli [33]): inactive; Activity (Acinetobacter baumannii [34]): inactive; Activity (Acinetobacter baumannii [35]): inactive; Activity (Acinetobacter baumannii [36]): inactive; Activity (Acinetobacter baumannii [37]): inactive; fold change (FC) (Escherichia coli [21]): 8; fold change (FC) (Acinetobacter baumannii [22]): 64; MIC (Acinetobacter baumannii [23]): 4 µg/mL; MIC (Escherichia coli [24]): 4 µg/mL; fold change (FC) (Escherichia coli [25]): 2; Activity (Escherichia coli [38]): Active; fold change (FC) (Acinetobacter baumannii [26]): 2; MIC (Pseudomonas aeruginosa [27]): 32 µg/mL; MIC (Escherichia coli [28]): 16 µg/mL; MIC (Acinetobacter baumannii [29]): 2 µg/mL; fold change (FC) (Acinetobacter baumannii [30]): >=256; fold change (FC) (Escherichia coli [31]): 16; Activity (Acinetobacter baumannii [39]): inactive
